PMC10350927 (Journal of Medicinal Chemistry, 2023)
Numbering of substitutions follows the chain as printed. Marks after values point to notes of the source that are not given here. One block for each molecule: values may come before it.

Key:
[1] = target: T1, mSUCNR1 (Mus musculus, UniProt Q99MT6); test: BRET competition binding using 22 as tracer, mSUCNR1; details: 1 μM 22, Kd = […]; highest unlabeled ligand 30 μΜ
T1 sequence (Q99MT6 1-317): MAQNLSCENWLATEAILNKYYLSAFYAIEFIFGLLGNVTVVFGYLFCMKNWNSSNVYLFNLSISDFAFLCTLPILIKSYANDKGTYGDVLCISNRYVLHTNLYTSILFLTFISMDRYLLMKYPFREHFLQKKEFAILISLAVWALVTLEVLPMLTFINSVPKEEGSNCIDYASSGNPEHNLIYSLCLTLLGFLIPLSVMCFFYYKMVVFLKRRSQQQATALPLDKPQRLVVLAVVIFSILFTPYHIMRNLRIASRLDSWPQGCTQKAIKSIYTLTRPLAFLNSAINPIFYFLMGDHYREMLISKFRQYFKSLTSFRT

[2] = target: T2, hSUCNR1 (Homo sapiens, UniProt Q9BXA5); test: BRET competition binding using 22 as tracer, hSUCNR1; details: 3 μM 22, Kd = 990 nM; mean ± SEM, three experiments
T2 sequence (Q9BXA5 1-334): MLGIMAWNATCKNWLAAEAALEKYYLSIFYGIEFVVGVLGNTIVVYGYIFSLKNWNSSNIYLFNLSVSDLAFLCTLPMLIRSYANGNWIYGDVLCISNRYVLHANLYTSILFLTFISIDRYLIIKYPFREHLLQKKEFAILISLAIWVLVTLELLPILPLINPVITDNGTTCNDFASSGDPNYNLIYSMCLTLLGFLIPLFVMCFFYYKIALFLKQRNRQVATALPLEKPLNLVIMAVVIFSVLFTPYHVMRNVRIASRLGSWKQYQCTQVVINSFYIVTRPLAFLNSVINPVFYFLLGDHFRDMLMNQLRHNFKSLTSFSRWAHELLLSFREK

[3] = target: T2, hSUCNR1; test: BRET competition binding using 46 as tracer, hSUCNR1; details: […] 46, Kd = 310 nM
[4] = target: T3, hmSUCNR1 (Mus musculus, UniProt Q99MT6, G84W/K269N/N18E); test: BRET competition binding using 22 as tracer, hmSUCNR1
T3 sequence (Q99MT6 1-317 N18E/G84W/K269N): T1 sequence (Q99MT6 1-317) with N18E, G84W, K269N

[5] = target: T3, hmSUCNR1; test: BRET competition binding using 46 as tracer, hmSUCNR1
[6] = target: T1, mSUCNR1; test: cAMP assay, agonist potency at mSUCNR1; type: cell-based; design: expressed in transfected cells; host or cells: Flp-In T-REx 293; details: Flp-In T-REx 293 cells; mean ± SEM, minimum three independent experiments
[7] = target: T2, hSUCNR1; test: cAMP assay, inhibition of succinate response at hSUCNR1; type: cell-based; design: expressed in transfected cells; host or cells: Flp-In T-REx 293; details: for cAMP hSUCNR1 pIC50: inhibition of […] succinate response, mean ± SEM

Compound: NCCCCCCOc1ccc(-c2ccc(C(=O)N[C@@H](CC(=O)O)C(=O)O)o2)cc1 [Compound 9d, (S)-6-(4-(5-((1,2-Dicarboxyethyl)carbamoyl)furan-2-yl)phenoxy)hexan-1-aminium 2,2,2-trifluoroacetate]
Competion binding using 22 mSUCNR1 pKi [1]: 6.2 ± 0.1

Compound: O=C(O)C[C@H](NC(=O)c1cccc(-c2ccc(OC(F)(F)F)cc2)n1)C(=O)O [Compound 3]
Competion binding using 22 mSUCNR1 pKi [1]: 5.8 ± 0.1
cAMP mSUCNR1 pEC50 [6]: 6.58 ± 0.16

Compound: CC(C)(C)OC(=O)NCCN1CCN(Cc2ccc(-c3cccc(C(=O)Nc4ccccc4CC(=O)O)c3)cc2)CC1 [Compound 43, 1-(2-((tert-Butoxycarbonyl)amino)ethyl)-4-((3′-((2-(carboxymethyl)phenyl)carbamoyl)-[1,1′-biphenyl]-4-yl)methyl)piperazin-1-ium 2,2,2-trifluoroacetate]
cAMP hSUCNR1 pIC50 [7]: 6.82 ± 0.02

Compound: O=C(O)Cc1ccccc1NC(=O)c1cccc(-c2ccc(Cl)cc2)c1 [Compound 32, 2-(2-(4′-Chloro-[1,1′-biphenyl]-3-carboxamido)phenyl)acetic acid]
Competion binding using 22 hSUCNR1 pKi [2]: 7.8 ± 0.3
Competion binding using 22 mSUCNR1 pKi [1]: <4.5 ^d
Competion binding using 46 hSUCNR1 pKi [3]: 7.6 ± 0.1
Ki [4]: 0.316 µM
fold lower affinity at hmSUCNR1 compared to hSUCNR1 ([4]; competition binding): ~10 fold
Ki [5]: 0.251 µM
cAMP hSUCNR1 pIC50 [7]: 6.31 ± 0.18

Compound: CCOc1ccc(-c2ccc(C(=O)N[C@@H](CC(=O)O)C(=O)O)o2)cc1 [Compound 2]
Competion binding using 22 mSUCNR1 pKi [1]: 6.2 ± 0.1
cAMP mSUCNR1 pEC50 [6]: 7.01 ± 0.04

Compound: NCCCCCOc1ccc(-c2ccc(C(=O)N[C@@H](CC(=O)O)C(=O)O)o2)cc1 [Compound 9c, (S)-5-(4-(5-((1,2-Dicarboxyethyl)carbamoyl)furan-2-yl)phenoxy)pentan-1-aminium 2,2,2-trifluoroacetate]
cAMP mSUCNR1 pEC50 [6]: 6.91 ± 0.09

Compound: CC(C)(C)OC(=O)NCCCCCCOc1ccc(-c2cccc(C(=O)N[C@@H](CC(=O)O)C(=O)O)n2)cc1 [Compound 15d, (6-(4-((6-((tert-Butoxycarbonyl)amino)hexyl)oxy)phenyl)picolinoyl)-L-aspartic acid]
cAMP mSUCNR1 pEC50 [6]: 5.76 ± 0.07

Further lines, results first:

Competion binding using 22 mSUCNR1 pKi [1]: <4.5 ^d
Compound: Cc1cc(Cl)ccc1-c1cccc(C(=O)Nc2ccccc2CC(=O)O)c1 [Compound 35, 2-(2-(4′-Chloro-2′-methyl-[1,1′-biphenyl]-3-carboxamido)phenyl)acetic acid]

Competion binding using 22 hSUCNR1 pKi [2]: 4.1 ± 0.1
Competion binding using 46 hSUCNR1 pKi [3]: 4.1 ± 0.3
Compound: O=C(O)[C@H]1O[C@H]1C(=O)O [Compound 47, cis-epoxysuccinic acid]

Competion binding using 22 hSUCNR1 pKi [2]: 5.9 ± 0.5
Competion binding using 22 mSUCNR1 pKi [1]: <4.5 ^d
Ki [4]: > 31.6 µM
Ki [5]: > 31.6 µM
Compound: O=C(O)CCc1cccc(Oc2ccc(Oc3cccc4cnccc34)cc2C(F)(F)F)c1 [Compound 48]

Competion binding using 22 mSUCNR1 pKi [1]: <4.5 ^d
Compound: Cc1cc(CN2CCN(C)CC2)ccc1-c1cccc(C(=O)Nc2ccccc2CC(=O)O)c1 [Compound 44, 4-((3′-((2-(Carboxymethyl)phenyl)carbamoyl)-2-methyl-[1,1′-biphenyl]-4-yl)methyl)-1-methylpiperazin-1-ium 2,2,2-trifluoroacetate]

fold increase in potency relative to 32 ([7]; hSUCNR1 cAMP): 3 fold
cAMP hSUCNR1 pIC50 [7]: 6.78 ± 0.01
Compound: Cc1ccc(C(=O)Nc2ccccc2CC(=O)O)cc1-c1ccc(Cl)cc1 [Compound 34, 2-(2-(4′-Chloro-6-methyl-[1,1′-biphenyl]-3-carboxamido)phenyl)acetic acid]
